The values below come from paper PMC3469269 (ACS medicinal chemistry letters, 2012).

One assay deals with hDAT (Homo sapiens, UniProt Q01959). Nature of the assay: Inhibition of [3H]-WIN-35,428 binding to hDAT in N2A neuroblastoma cells.
Assay [1] has as its system DAT. The settings on record: cited from earlier work.
For assay [2], the system named is DAT. The settings on record: ref Vaughan et al., unpublished observations; cited from earlier work.

Sequence of hDAT (Q01959 whole entry): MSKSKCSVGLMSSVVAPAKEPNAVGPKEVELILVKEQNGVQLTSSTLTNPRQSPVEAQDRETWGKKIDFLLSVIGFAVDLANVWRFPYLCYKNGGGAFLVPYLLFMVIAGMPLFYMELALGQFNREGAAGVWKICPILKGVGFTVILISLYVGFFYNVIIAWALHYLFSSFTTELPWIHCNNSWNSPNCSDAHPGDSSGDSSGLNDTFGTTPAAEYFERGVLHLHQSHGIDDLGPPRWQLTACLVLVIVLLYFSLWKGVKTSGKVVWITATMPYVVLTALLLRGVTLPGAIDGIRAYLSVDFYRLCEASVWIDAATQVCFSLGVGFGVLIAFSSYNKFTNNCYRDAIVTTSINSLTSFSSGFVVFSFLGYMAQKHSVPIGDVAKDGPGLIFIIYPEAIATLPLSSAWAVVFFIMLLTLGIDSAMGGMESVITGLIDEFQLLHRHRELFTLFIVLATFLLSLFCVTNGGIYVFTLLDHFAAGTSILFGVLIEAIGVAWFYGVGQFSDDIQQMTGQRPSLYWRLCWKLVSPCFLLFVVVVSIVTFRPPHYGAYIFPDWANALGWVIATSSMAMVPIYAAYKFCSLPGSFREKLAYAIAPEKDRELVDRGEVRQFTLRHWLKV

Take `COC(=O)[C@H](c1ccc(N)c(I)c1)[C@H]1CCCCN1` (racemic) [(±)-14]: the “fold decrease in binding affinity for hDAT” value on hDAT (relative to aniline (±)-13 (addition of 3-I)) was ~ 1.4 fold.

For `COC(=O)C1C(c2ccc(N=[N+]=[N-])c(I)c2)CC2CCC1N2C` (stereo not shown) [compound 5, 3-(4′-azido-3′-iodo-phenyl)-8-methyl-8-aza-bicyclo-[3.2.1]octane-2-carboxylic acid methyl ester], in the assay with DAT [1], the “binding to the DAT” value was “high affinity, wash-resistant binding”. For the same compound, in the assay on DAT [2], the “labeling of the DAT in immunoprecipitation and proteolysis experiments” value was “fails to label the DAT”. On to `COC(=O)[C@H](c1ccc(N=[N+]=[N-])c(I)c1)[C@H]1CCCCN1` (racemic) [(±)-6, (±)-threo-4-Azido-3-iodomethylphenidate], for which the “fold increase in hDAT affinity” value on hDAT (relative to (±)-14 (aniline replaced by azide)) was ~ 2.3 fold.
